Measured values reported in patent US9062056B2, “Aza-benzimidazolone Chymase inhibitors” (Boehringer Ingelheim International GmbH, priority 2008, dated 2015).

target: T1, Chymase (Homo sapiens, UniProt P23946); test: In vitro assay for inhibition of Chymase (rhodamine 110 peptide substrate, fluorescence); type: biochemical; details: 500 pM chymase, 100 nM substrate, 100 μM TCEP, 1% DMSO, 28° C., 1 hour
T1 sequence (P23946 22-247): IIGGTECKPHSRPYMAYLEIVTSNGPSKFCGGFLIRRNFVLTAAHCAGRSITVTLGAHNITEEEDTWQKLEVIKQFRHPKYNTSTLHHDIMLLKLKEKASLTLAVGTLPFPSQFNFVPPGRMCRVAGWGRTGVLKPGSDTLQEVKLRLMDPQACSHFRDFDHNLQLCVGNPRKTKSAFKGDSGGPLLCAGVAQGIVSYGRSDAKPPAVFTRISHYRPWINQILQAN
Method: IN VITRO ASSAY FOR INHIBITION OF CHYMASE
Chymase assays were performed in a total volume of 15 μL in Corning black opaque 384-well microtiter plates with a non-binding surface (Corning, N.Y.). The assay buffer was comprised of 20 mM Tris HCl pH 8.0, 50 mM NaCl, 0.01% CHAPS. The test compounds were serially diluted 3-fold with neat DMSO in a 96-well polypropylene plate from a 10 mM DMSO stock to give the 10 point dose response curve. 3 μL of the resulting DMSO solution were transferred to a 384-well polypropylene plate in duplicate, and 37 μL of assay buffer was added. Chymase was added to the assay plate in 3 uL of assay buffer followed by 2 uL of the appropriate compound dilution using a PlateMate Plus (Matrix Technologies Corp., Hudson, N.H.). The reaction was initiated by the addition of 10 uL rhodamine 110, bis-(succinoyl-L-alanyl-L-alanyl-L-prolyl-L-phenylalanylamide) (American Peptides, Sunnyvale, Calif.) in assay buffer containing 150 μM tris(2-carboxyethyl)phosphine (TCEP, Pierce Chemical, Rockford, Ill.) using a Multidrop (Thermo Electron Corp., Waltham, Mass.). Final assay concentrations were 500 pM chymase, 100 nM substrate, 100 μM TCEP, and 1% DMSO. The plates were incubated at 28° C. and 80% humidity for 1 hour, at which time the fluorescence was read on a Viewlux 1430 Microplate Imager (Perkin Elmer Life Sciences, Boston, Mass.) with 485 nm excitation, 530 nm emission, and a fluorescein dichroic mirror. The percentage of control values were calculated relative to assay blanks containing complete reaction minus chymase and a 100% control containing assay buffer with 1% DMSO in place of compound. IC50 values were obtained by fitting the data using XLFit4 (IDBS Software).

Row | Compound | IC50 [nM]
1 | Cc1cc(C)c2c(Cn3c(=O)n([C@H](CC(=O)O)c4ccc(Cl)cc4)c4nc(C#N)ccc43)cn(C)c2c1 [(R)-3-(4-Chloro-phenyl)-3-[5-cyano-2-oxo-1-(1,4,6-trimethyl-1H-indol-3-ylmethyl)-1,2-dihydro-imidazo[4,5-b]pyridin-3-yl]-propionic acid] | 0.2
2 | Cc1cc(C)c2c(Cn3c(=O)n([C@H](CC(=O)O)c4ccc(Cl)cc4)c4nc(C)ccc43)cn(C)c2c1 [(R)-3-(4-Chloro-phenyl)-3-[5-methyl-2-oxo-1-(1,4,6-trimethyl-1H-indol-3-ylmethyl)-1,2-dihydro-imidazo[4,5-b]pyridin-3-yl]-propionic acid] | 0.2
3 | COc1ccc([C@@H](CC(=O)O)n2c(=O)n(Cc3cn(C)c4cccc(C)c34)c3ccc(C)nc32)cc1 [(R)-3-[1-(1,4-Dimethyl-1H-indol-3-ylmethyl)-5-methyl-2-oxo-1,2-dihydro-imidazo[4,5-b]pyridin-3-yl]-3-(4-methoxy-phenyl)-propionic acid] | 0.455
4 | Cc1cc(C)c2c(Cn3c(=O)n([C@H](CC(=O)O)c4ccccc4)c4ncccc43)nsc2c1 [(R)-3-[1-(4,6-Dimethyl-benzo[d]isothiazol-3-ylmethyl)-2-oxo-1,2-dihydro-imidazo[4,5-b]pyridin-3-yl]-3-phenyl-propionic acid] | 4.23
5 | Cc1cc(C)c2c(Cn3c(=O)n([C@H](CC(=O)O)c4ccccc4)c4cc(C)ncc43)nsc2c1 [(R)-3-[3-(4,6-Dimethyl-1,2-benzisothiazol-3-ylmethyl)-6-methyl-2-oxo-2,3-dihydro-imidazo[4,5-c]pyridin-1-yl]-3-phenyl-propionic acid] | 4
6 | Cc1cc(C)c2c(Cn3c(=O)n([C@H](CC(=O)O)c4ccccc4)c4ccncc43)nsc2c1 [(R)-3-[3-(4,6-Dimethyl-benzo[d]isothiazol-3-ylmethyl)-2-oxo-2,3-dihydro-imidazo[4,5-c]pyridin-1-yl]-3-phenyl-propionic acid] | 11.2
7 | Cc1cc(C)c2c(Cn3c(=O)n([C@H](CC(=O)O)c4ccc(F)cc4)c4nc(C(N)=O)ccc43)cn(C)c2c1 [(R)-3-[5-Carbamoyl-2-oxo-1-(1,4,6-trimethyl-1H-indol-3-ylmethyl)-1,2-dihydro-imidazo[4,5-b]pyridin-3-yl]-3-(4-fluoro-phenyl)-propionic acid] | 0.395
8 | Cc1cccc2c1c(Cn1c(=O)n([C@H](CC(=O)O)c3ccc(F)cc3)c3nc(C#N)ccc31)cn2C [(R)-3-[5-Cyano-1-(1,4-dimethyl-1H-indol-3-ylmethyl)-2-oxo-1,2-dihydro-imidazo[4,5-b]pyridin-3-yl]-3-(4-fluoro-phenyl)-propionic acid] | 0.245
9 | Cc1cc(C)c2c(Cn3c(=O)n([C@H](CC(=O)O)c4ccc(F)cc4)c4nc(C#N)ccc43)cn(C)c2c1 [(R)-3-[5-Cyano-2-oxo-1-(1,4,6-trimethyl-1H-indol-3-ylmethyl)-1,2-dihydro-imidazo[4,5-b]pyridin-3-yl]-3-(4-fluoro-phenyl)-propionic acid] | 0.23
10 | Cc1cc(C)c2c(Cn3c(=O)n([C@H](CC(=O)O)c4ccccc4)c4nc(C#N)ccc43)cn(C)c2c1 [(R)-3-[5-Cyano-2-oxo-1-(1,4,6-trimethyl-1H-indol-3-ylmethyl)-1,2-dihydro-imidazo[4,5-b]pyridin-3-yl]-3-phenyl-propionic acid] | 0.6
11 | CCC[C@@H](CC(=O)O)n1c(=O)n(Cc2cn(C)c3cccc(C)c23)c2cccnc21 [(S)-3-[1-(1,4-Dimethyl-1H-indol-3-ylmethyl)-2-oxo-1,2-dihydro-imidazo[4,5-b]pyridin-3-yl]-hexanoic acid] | 4.93
12 | CCC[C@@H](CC(=O)O)n1c(=O)n(Cc2cn(C)c3cccc(C)c23)c2ccc(C)nc21 [(S)-3-[1-(1,4-Dimethyl-1H-indol-3-ylmethyl)-5-methyl-2-oxo-1,2-dihydro-imidazo[4,5-b]pyridin-3-yl]-hexanoic acid] | 4.48
13 | CCC[C@@H](CC(=O)O)n1c(=O)n(Cc2cn(C)c3cccc(C)c23)c2cc(C)cnc21 [(S)-3-[1-(1,4-Dimethyl-1H-indol-3-ylmethyl)-6-methyl-2-oxo-1,2-dihydro-imidazo[4,5-b]pyridin-3-yl]-hexanoic acid] | 3.46
14 | CCC[C@@H](CC(=O)O)n1c(=O)n(Cc2nsc3cc(C)cc(C)c23)c2ccc(C)nc21 [(S)-3-[1-(4,6-Dimethyl-1,2-benzisothiazol-3-ylmethyl)-5-methyl-2-oxo-1,2-dihydro-imidazo[4,5-b]pyridin-3-yl]-hexanoic acid] | 3.4
15 | CCC[C@@H](CC(=O)O)n1c(=O)n(Cc2cn(C)c3cccc(C)c23)c2ncccc21 [(S)-3-[3-(1,4-Dimethyl-1H-indol-3-ylmethyl)-2-oxo-2,3-dihydro-imidazo[4,5-b]pyridin-1-yl]-hexanoic acid] | 8.86
16 | CCC[C@@H](CC(=O)O)n1c(=O)n(Cc2cn(C)c3cccc(C)c23)c2cnccc21 [(S)-3-[3-(1,4-Dimethyl-1H-indol-3-ylmethyl)-2-oxo-2,3-dihydro-imidazo[4,5-c]pyridin-1-yl]-hexanoic acid] | 18.9
17 | CCC[C@@H](CC(=O)O)n1c(=O)n(Cc2cn(C)c3cc(C)cc(C)c23)c2ccc(C)nc21 [(S)-3-[5-Methyl-2-oxo-1-(1,4,6-trimethyl-1H-indol-3-ylmethyl)-1,2-dihydro-imidazo[4,5-b]pyridin-3-yl]-hexanoic acid] | 0.81

Next, values leading:

Row | IC50 [nM] | Compound
18 | 2.21 | Cc1cccc2c1c(Cn1c(=O)n([C@H](CC(=O)O)c3ccccc3)c3ncccc31)cn2C [(R)-3-[1-(1,4-Dimethyl-1H-indol-3-ylmethyl)-2-oxo-1,2-dihydro-imidazo[4,5-b]pyridin-3-yl]-3-phenyl-propionic acid]
19 | 2.05 | COc1ccc2c(n1)n([C@H](CC(=O)O)c1ccccc1)c(=O)n2Cc1cn(C)c2cccc(C)c12 [(R)-3-[1-(1,4-Dimethyl-1H-indol-3-ylmethyl)-5-methoxy-2-oxo-1,2-dihydro-imidazo[4,5-b]pyridin-3-yl]-3-phenyl-propionic acid]
20 | 2.52 | Cc1ccc2c(n1)n([C@H](CC(=O)O)c1ccccc1)c(=O)n2Cc1cn(C)c2cccc(C)c12 [(R)-3-[1-(1,4-Dimethyl-1H-indol-3-ylmethyl)-5-methyl-2-oxo-1,2-dihydro-imidazo[4,5-b]pyridin-3-yl]-3-phenyl-propionic acid]
21 | 10.7 | Cc1ccc2c(n1)n([C@H](CC(=O)O)c1cccnc1)c(=O)n2Cc1cn(C)c2cccc(C)c12 [(R)-3-[1-(1,4-Dimethyl-1H-indol-3-ylmethyl)-5-methyl-2-oxo-1,2-dihydro-imidazo[4,5-b]pyridin-3-yl]-3-pyridin-3-yl-propionic acid]
22 | 5 | Cc1cccc2c1c(Cn1c(=O)n([C@H](CC(=O)O)c3ccccc3)c3nc(C4CC4)ncc31)cn2C [(R)-3-[2-Cyclopropyl-7-(1,4-dimethyl-1H-indol-3-ylmethyl)-8-oxo-7,8-dihydro-purin-9-yl]-3-phenyl-propionic acid]
23 | 0.61 | Cc1cc(C)c2c(Cn3c(=O)n([C@H](CC(=O)O)c4ccccc4)c4ncccc43)cn(C)c2c1 [(R)-3-[2-Oxo-1-(1,4,6-trimethyl-1H-indol-3-ylmethyl)-1,2-dihydro-imidazo[4,5-b]pyridin-3-yl]-3-phenyl-propionic acid]
24 | 3.91 | Cc1cccc2c1c(Cn1c(=O)n([C@H](CC(=O)O)c3ccccc3)c3ccncc31)cn2C [(R)-3-[3-(1,4-Dimethyl-1H-indol-3-ylmethyl)-2-oxo-2,3-dihydro-imidazo[4,5-c]pyridin-1-yl]-3-phenyl-propionic acid]
25 | 2.62 | Cc1cc2c(cn1)n(Cc1cn(C)c3cccc(C)c13)c(=O)n2[C@H](CC(=O)O)c1ccccc1 [(R)-3-[3-(1,4-Dimethyl-1H-indol-3-ylmethyl)-6-methyl-2-oxo-2,3-dihydro-imidazo[4,5-c]pyridin-1-yl]-3-phenyl-propionic acid]
26 | 1.5 | Cc1cccc2c1c(Cn1c(=O)n([C@H](CC(=O)O)c3ccccc3)c3nc(C#N)ccc31)cn2C [(R)-3-[5-Cyano-1-(1,4-dimethyl-1H-indol-3-ylmethyl)-2-oxo-1,2-dihydro-imidazo[4,5-b]pyridin-3-yl]-3-phenyl-propionic acid]
27 | 0.605 | COc1ccc2c(n1)n([C@H](CC(=O)O)c1ccccc1)c(=O)n2Cc1cn(C)c2cc(C)cc(C)c12 [(R)-3-[5-Methoxy-2-oxo-1-(1,4,6-trimethyl-1H-indol-3-ylmethyl)-1,2-dihydro-imidazo[4,5-b]pyridin-3-yl]-3-phenyl-propionic acid]
28 | 12.6 | Cc1cccc2c1c(Cn1c(=O)n([C@H](CC(=O)O)c3ccccc3)c3nc(C(C)C)ncc31)cn2C [(R)-3-[7-(1,4-Dimethyl-1H-indol-3-ylmethyl)-2-isopropyl-8-oxo-7,8-dihydro-purin-9-yl]-3-phenyl-propionic acid]
